In brackets after ≈: the same amount, converted by molar mass. Where two headings read alike, the source gives them in different places.
Assays:
[1] = tested on: A. baumannii clinical isolates; assay: Broth microdilution MIC, A. baumannii clinical isolates; format: cell-based, Acinetobacter baumannii; details: for CLSI % Res / CLSI % Sus: CLSI BP; for CLSI % Res: for MEM-ANT3310 % at ≥16 µg/mL; for CLSI % Sus: for MEM-ANT3310 % inhibited at ≤8 µg/mL; for EUCAST % Res / EUCAST % Sus: EUCAST BP
In short: (§1)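 Broth microdilution per CLSI and EUCAST in cation-adjusted Mueller Hinton broth, iron-depleted for cefiderocol; ANT3310 panels prepared fresh on test day. Isolates collected 2018–2019, identity confirmed by MALDI-TOF. MIC taken as first well without visible growth, interpreted with 2023 CLSI and EUCAST breakpoints.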

[2] = tested on: carbapenem-resistant Acinetobacter baumannii (CRAB) clinical isolates; assay: Broth microdilution MIC, CRAB isolates; format: cell-based; details: for CLSI % Res / CLSI % Sus / EUCAST % Res / EUCAST % Sus: CRAB; for CLSI % Res / CLSI % Sus: CLSI BP; for CLSI % Res: for MEM-ANT3310 % at ≥16 µg/mL; for CLSI % Sus: for MEM-ANT3310 % inhibited at ≤8 µg/mL; for EUCAST % Res / EUCAST % Sus: EUCAST BP; for MIC90: read-out: MIC90
In short: as §1

[3] = tested on: KPC-producing Enterobacterales (KPC-CRE); assay: organism not typed; format: cell-based
In short: as §1

[4] = tested on: OXA-producing Enterobacterales (OXA-CRE); assay: organism not typed; format: cell-based
In short: as §1

[5] = tested on: P. aeruginosa clinical isolates; assay: Broth microdilution MIC, P. aeruginosa clinical isolates; format: cell-based, Pseudomonas aeruginosa; details: 502 P. aeruginosa, 2019 global collection
In short: as §1

[6] = tested on: A. baumannii ACC00445 (OXA-23); assay: MIC against the isolate used in the infection models; format: cell-based; details: Acinetobacter baumannii
Method: MICs for all antimicrobial agents were determined at IHMA by broth microdilution in accordance with both CLSI ([17]) and EUCAST ([18]) guidelines. Microtiter panels were prepared by IHMA and stored at −70°C in cation-adjusted Mueller Hinton broth (CAMHB) (Becton Dickinson). Iron-depleted CAMHB was used to test cefiderocol. Panels containing ANT3310 were prepared fresh on the day of testing. […] MIC values corresponded to the first well with no visible growth. Quality control testing was performed on each day of testing with E. coli ATCC 25922, P. aeruginosa ATCC 27853, K. pneumoniae ATCC 700603 and BAA 1705, and A. baumannii NCTC 13304. MICs were interpreted using 2023 CLSI ([17]) and EUCAST ([18]) BPs.

[7] = tested on: A. baumannii ACC00445 (OXA-23); assay: Murine thigh infection model; format: in vivo, neutropenic male CD-1 mice; details: 9-h model, MEM 300 mg/kg IV every 2 h alone
[8] = tested on: A. baumannii ACC00445 (OXA-23); assay: Murine lung infection model; format: in vivo, neutropenic male CD-1 mice; details: 14-h model, MEM IV 30 mg/kg
[9] = parameters: method as in PMID 14517194, PMID 20851549; details: 2 g MEM q8h as a 3-h IV infusion; cited from earlier work
[10] = parameters: method as in PMID 32297801; details: 2 g MEM q8h as a 3-h IV infusion, MEM-vaborbactam clinical trials; cited from earlier work
[11] = 2018 Global collection, All A. baumannii, N 500
[12] = 2019 Global collection, All A. baumannii, N 405
[13] = 2018 Global collection, CRAB (MEM MICs >4 µg/mL), N 363
[14] = 2019 Global collection, CRAB (MEM MICs >4 µg/mL), N 340
[15] = 180 KPC-producing Enterobacterales, EUCAST BP
[16] = 252 OXA-producing Enterobacterales, EUCAST BP

C[C@@H](O)[C@H]1C(=O)N2C(C(=O)O)=C(S[C@@H]3CN[C@H](C(=O)N(C)C)C3)[C@H](C)[C@H]12 [MEM, meropenem]
% of isolates resistant to MEM (CLSI, MIC ≥8 µg/mL) ([1]; 905 A. baumannii isolates, overall): 78% | MIC50 [1, 11]: >32 µg/mL | MIC90 [1, 11]: >32 µg/mL | Number of isolates inhibited at MIC of 0.25 µg/mL [1, 11]: 52 | Number of isolates inhibited at MIC of 0.5 µg/mL [1, 11]: 42 | Number of isolates inhibited at MIC of 1 µg/mL [1, 11]: 21 | Number of isolates inhibited at MIC of 2 µg/mL [1, 11]: 9 | Number of isolates inhibited at MIC of 4 µg/mL [1, 11]: 6 | Number of isolates inhibited at MIC of 8 µg/mL [1, 11]: 5 | Number of isolates inhibited at MIC of 16 µg/mL [1, 11]: 16 | Number of isolates inhibited at MIC of 32 µg/mL [1, 11]: 64 | Number of isolates inhibited at MIC of >32 µg/mL [1, 11]: 278 | Number of isolates inhibited at MIC of ≤0.125 µg/mL [1, 11]: 7 | CLSI % Res [1, 11]: 72.6% | CLSI % Sus [1, 11]: 26.2% | EUCAST % Res [1, 11]: 71.6% | EUCAST % Sus [1, 11]: 26.2% | MIC50 [1, 12]: >32 µg/mL | Number of isolates inhibited at MIC of 0.25 µg/mL [1, 12]: 31 | Number of isolates inhibited at MIC of 0.5 µg/mL [1, 12]: 18 | Number of isolates inhibited at MIC of 1 µg/mL [1, 12]: 1 | Number of isolates inhibited at MIC of 2 µg/mL [1, 12]: 5 | Number of isolates inhibited at MIC of 4 µg/mL [1, 12]: 3 | Number of isolates inhibited at MIC of 8 µg/mL [1, 12]: 9 | Number of isolates inhibited at MIC of 16 µg/mL [1, 12]: 12 | Number of isolates inhibited at MIC of 32 µg/mL [1, 12]: 66 | Number of isolates inhibited at MIC of >32 µg/mL [1, 12]: 253 | Number of isolates inhibited at MIC of ≤0.125 µg/mL [1, 12]: 7 | CLSI % Res [1, 12]: 83.9% | CLSI % Sus [1, 12]: 15.3% | EUCAST % Res [1, 12]: 81.7% | EUCAST % Sus [1, 12]: 15.3% | MEM-resistance rate ([1]; A. baumannii isolates from Asia/Pacific): 74% | MEM-resistance rate ([1]; A. baumannii isolates from Middle East): 91% | MEM-resistance rate ([1]; A. baumannii isolates from North America): 40% | MIC90 ([1]; Acinetobacter baumannii, 2018 Global collection, All A. baumannii, N 500, read-out: MIC90): > 32 µg/mL | MIC90 ([1]; Acinetobacter baumannii, 2019 Global collection, All A. baumannii, N 405, read-out: MIC90): > 32 µg/mL | MIC90 ([1]; Acinetobacter baumannii, A. baumannii, one or both of the 2018/2019 collections, read-out: MIC90): ≥ 32 µg/mL | MIC50 ([1]; Acinetobacter baumannii, combined A. baumannii 2018–2019 collection (n = 905), ANT3310 at 8 µg/mL, read-out: MIC50): > 32 µg/mL | MIC90 ([1]; Acinetobacter baumannii, combined A. baumannii 2018–2019 collection (n = 905), ANT3310 at 8 µg/mL, read-out: MIC90): > 32 µg/mL | MIC50 [2, 13]: >32 µg/mL | Number of isolates inhibited at MIC of 8 µg/mL [2, 13]: 5 | Number of isolates inhibited at MIC of 16 µg/mL [2, 13]: 16 | Number of isolates inhibited at MIC of 32 µg/mL [2, 13]: 64 | Number of isolates inhibited at MIC of >32 µg/mL [2, 13]: 278 | CLSI % Res ([2]; 2018 Global collection, N 363): 100% | CLSI % Sus ([2]; 2018 Global collection, N 363): 0% | EUCAST % Res ([2]; 2018 Global collection, N 363): 98.6% | EUCAST % Sus ([2]; 2018 Global collection, N 363): 0% | MIC50 [2, 14]: >32 µg/mL | Number of isolates inhibited at MIC of 8 µg/mL [2, 14]: 9 | Number of isolates inhibited at MIC of 16 µg/mL [2, 14]: 12 | Number of isolates inhibited at MIC of 32 µg/mL [2, 14]: 66 | Number of isolates inhibited at MIC of >32 µg/mL [2, 14]: 253 | CLSI % Res ([2]; 2019 Global collection, N 340): 100% | CLSI % Sus ([2]; 2019 Global collection, N 340): 0% | EUCAST % Res ([2]; 2019 Global collection, N 340): 97.3% | EUCAST % Sus ([2]; 2019 Global collection, N 340): 0% | MIC90 ([2]; Acinetobacter baumannii, 2018 Global collection, CRAB (MEM MICs >4 µg/mL), N 363): > 32 µg/mL | MIC90 ([2]; Acinetobacter baumannii, 2019 Global collection, CRAB (MEM MICs >4 µg/mL), N 340): > 32 µg/mL | MIC50 ([2]; Acinetobacter baumannii, CRAB isolates 2018–2019 (n = 703), ANT3310 at 8 µg/mL, read-out: MIC50): > 32 µg/mL | MIC90 ([2]; Acinetobacter baumannii, CRAB isolates 2018–2019 (n = 703), ANT3310 at 8 µg/mL): > 32 µg/mL | MIC50 [3]: > 32 µg/mL | MIC90 [3]: > 32 µg/mL | MIC90 ([3]; 180 KPC-producing Enterobacterales, 2018 global collection): >32 µg/mL | CLSI % Res ([3]; 180 KPC-producing Enterobacterales, CLSI BP, for MEM-ANT3310 % at ≥16 µg/mL): 98.9% | CLSI % Sus ([3]; 180 KPC-producing Enterobacterales, CLSI BP, for MEM-ANT3310 % inhibited at ≤8 µg/mL): 0% | EUCAST % Res [3, 15]: 88.3% | EUCAST % Sus [3, 15]: 1.1% | MIC50 [4]: 16 µg/mL (≈ 41.7 µM) | MIC90 [4]: > 32 µg/mL | MIC90 ([4]; 252 OXA-producing Enterobacterales, 2018 global collection): >32 µg/mL | CLSI % Res ([4]; 252 OXA-producing Enterobacterales, CLSI BP, for MEM-ANT3310 % at ≥16 µg/mL): 89.7% | CLSI % Sus ([4]; 252 OXA-producing Enterobacterales, CLSI BP, for MEM-ANT3310 % inhibited at ≤8 µg/mL): 0% | EUCAST % Res [4, 16]: 74.6% | EUCAST % Sus [4, 16]: 10.5% | Number of isolates inhibited at MIC of 0.25 µg/mL [5]: 97 | Number of isolates inhibited at MIC of 0.5 µg/mL [5]: 109 | Number of isolates inhibited at MIC of 1 µg/mL [5]: 87 | Number of isolates inhibited at MIC of 2 µg/mL [5]: 27 | Number of isolates inhibited at MIC of 4 µg/mL [5]: 25 | Number of isolates inhibited at MIC of 8 µg/mL [5]: 27 | Number of isolates inhibited at MIC of 16 µg/mL [5]: 15 | Number of isolates inhibited at MIC of 32 µg/mL [5]: 9 | Number of isolates inhibited at MIC of >32 µg/mL [5]: 26 | Number of isolates inhibited at MIC of ≤0.125 µg/mL [5]: 80 | MIC50 ([5]; Pseudomonas aeruginosa, read-out: MIC50): 0.5 µg/mL (≈ 1.3 µM) | MIC90 ([5]; Pseudomonas aeruginosa, read-out: MIC90): 8 µg/mL (≈ 20.9 µM) | MIC [6]: 64 µg/mL (≈ 167 µM) | bacterial counts compared to the vehicle-treated group [7]: No reductions in bacterial counts | efficacy of MEM alone [8]: No efficacy | probability of target attainment for MEM MICs ≤8 µg/mL [9]: > 90% | safety and tolerability [10]: generally safe and well tolerated

Source: paper PMC10916402, “Meropenem-ANT3310, a unique β-lactam-β-lactamase inhibitor combination with expanded antibacterial spectrum against Gram-negative pathogens including carbapenem-resistant Acinetobacter baumannii” (Antimicrobial Agents and Chemotherapy, 2024)
